According to article PMC11719397, “Monophthalates of betulinic acid and related pentacyclic triterpenes inhibit efficiently the SOS-mediated nucleotide exchange and impact PI3K/AKT signaling in oncogenic K-RAS4B proteins” (RSC Advances, 2025):
Converted amounts (≈) assume the structure as drawn.

Legend:
[1] = target: K-RAS4B wild-type (Homo sapiens, UniProt P01116); experiment: Nucleotide exchange assay (SOS1-mediated GDP/GTP exchange, GDP-Glo), K-RAS4B wild-type; assay type: biochemical; details: K-RAS4B GDP/GTP exchange; eight data points, at least three determinations; (*) single determination
Chain of K-RAS4B wild-type (Homo sapiens, UniProt P01116) (P01116 1-188 isoform P01116-2): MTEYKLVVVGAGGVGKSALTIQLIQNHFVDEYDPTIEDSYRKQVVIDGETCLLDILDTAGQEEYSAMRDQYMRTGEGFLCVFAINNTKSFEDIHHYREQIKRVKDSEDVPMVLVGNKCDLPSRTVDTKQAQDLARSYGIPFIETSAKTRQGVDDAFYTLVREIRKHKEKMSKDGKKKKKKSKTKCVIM

[2] = system: K-RAS4B wild-type; experiment: as above; assay type: biochemical; details: GDP/GTP exchange IC50 of wild-type versus G12D/G12V mutants
[3] = target: T1, K-RAS4B^G12D (Homo sapiens, UniProt P01116, G12D); experiment: biochemical; details: K-RAS4B GDP/GTP exchange; eight data points, at least three determinations
T1 sequence (P01116 1-188 isoform P01116-2 G12D): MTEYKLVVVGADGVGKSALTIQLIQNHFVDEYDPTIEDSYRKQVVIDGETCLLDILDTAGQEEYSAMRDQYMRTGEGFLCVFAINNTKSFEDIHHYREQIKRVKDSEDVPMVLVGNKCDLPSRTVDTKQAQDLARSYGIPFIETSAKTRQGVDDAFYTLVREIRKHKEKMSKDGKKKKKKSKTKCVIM

[4] = target: K-RAS4B G12V (Homo sapiens, UniProt P01116, G12V); experiment: Nucleotide exchange assay (SOS1-mediated GDP/GTP exchange, GDP-Glo), K-RAS4B G12V; assay type: biochemical; details: eight data points, at least three determinations, (*) single determination
Chain of K-RAS4B G12V (P01116 1-188 isoform P01116-2 G12V): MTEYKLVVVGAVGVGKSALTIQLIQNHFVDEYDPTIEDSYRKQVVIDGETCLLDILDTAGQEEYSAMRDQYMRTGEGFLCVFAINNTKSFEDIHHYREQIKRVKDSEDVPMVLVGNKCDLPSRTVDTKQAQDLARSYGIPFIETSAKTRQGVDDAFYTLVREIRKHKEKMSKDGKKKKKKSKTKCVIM

[5] = target: T1, K-RAS4B^G12D; experiment: Surface plasmon resonance (SPR), K-RAS4B^G12D; assay type: binding; details: K-RAS4B^G12D alone
[6] = target: T2, SOS (Homo sapiens, UniProt Q07889); experiment: Surface plasmon resonance (SPR), SOS; assay type: binding; details: SOS alone
T2 sequence (Q07889 1-1333): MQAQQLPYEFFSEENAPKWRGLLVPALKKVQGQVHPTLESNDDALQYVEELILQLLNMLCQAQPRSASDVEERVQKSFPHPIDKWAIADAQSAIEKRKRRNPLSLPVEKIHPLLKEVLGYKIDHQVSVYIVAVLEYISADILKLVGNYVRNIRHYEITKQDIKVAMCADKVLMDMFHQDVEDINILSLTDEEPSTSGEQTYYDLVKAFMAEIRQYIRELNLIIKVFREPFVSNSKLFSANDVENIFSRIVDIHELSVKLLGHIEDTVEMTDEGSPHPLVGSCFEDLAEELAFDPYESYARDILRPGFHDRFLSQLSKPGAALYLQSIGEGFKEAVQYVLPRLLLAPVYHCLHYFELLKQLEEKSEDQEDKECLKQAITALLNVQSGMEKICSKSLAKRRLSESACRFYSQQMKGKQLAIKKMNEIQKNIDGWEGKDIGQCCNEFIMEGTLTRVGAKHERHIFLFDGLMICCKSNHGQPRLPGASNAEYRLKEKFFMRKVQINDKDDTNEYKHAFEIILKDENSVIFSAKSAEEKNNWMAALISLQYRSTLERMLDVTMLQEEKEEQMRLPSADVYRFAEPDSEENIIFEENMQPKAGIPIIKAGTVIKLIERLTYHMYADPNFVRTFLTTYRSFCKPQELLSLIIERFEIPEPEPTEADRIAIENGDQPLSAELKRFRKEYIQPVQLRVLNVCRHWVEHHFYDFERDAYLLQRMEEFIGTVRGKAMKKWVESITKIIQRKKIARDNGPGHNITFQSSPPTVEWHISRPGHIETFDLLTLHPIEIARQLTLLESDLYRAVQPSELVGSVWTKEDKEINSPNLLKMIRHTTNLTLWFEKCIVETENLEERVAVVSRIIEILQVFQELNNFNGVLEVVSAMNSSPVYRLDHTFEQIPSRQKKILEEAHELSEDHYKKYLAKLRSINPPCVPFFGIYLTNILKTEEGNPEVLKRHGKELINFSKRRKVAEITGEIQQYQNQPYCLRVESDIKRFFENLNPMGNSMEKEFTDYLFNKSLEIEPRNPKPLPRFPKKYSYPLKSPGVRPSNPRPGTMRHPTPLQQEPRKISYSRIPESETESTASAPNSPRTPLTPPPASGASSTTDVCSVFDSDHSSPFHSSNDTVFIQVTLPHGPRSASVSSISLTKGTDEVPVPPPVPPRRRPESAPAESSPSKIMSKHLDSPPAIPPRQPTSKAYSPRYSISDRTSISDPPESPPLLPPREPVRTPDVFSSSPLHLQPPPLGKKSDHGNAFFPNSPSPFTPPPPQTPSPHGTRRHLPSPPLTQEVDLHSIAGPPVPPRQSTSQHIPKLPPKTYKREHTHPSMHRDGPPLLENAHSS

[7] = system: ERK phosphorylation in SNU-1 cells (K-RAS4B^G12D); experiment: HTRF ERK phosphorylation assay in SNU-1 cells; assay type: cell-based; details: Homo sapiens, SNU1, read-out: SNU-1 pERK inhibition IC50
Protocol: (§1) For selected betulinic acid derivatives quantitative ERK and AKT phosphorylation was measured in SNU-1 (K-RAS4B^G12D) and A375 cells (K-RAS4B^wt) to determine whether pentacyclic triterpenes act via the RAS-RAF-MEK-ERK or the RAS-PI3K-PDK1-AKT downstream cascade (Table 2). The betulinic acid derivatives tested, had no activity on the ERK pathway, but inhibited AKT phosphorylation with micromolar IC50 values in agreement with literature reports.[50,51] […] No activity was detected in A375 cells carrying a BRAF but no K-RAS mutation.
(§2) SNU-1 cells harbouring the K-RASG12D mutation (primary carcinoma of the stomach), were grown in RPMI medium with 10% FBS (fetal bovine serum) and 1% L-Gln. Cells were plated in white small volume cell culture 384 well microplates (Greiner BioOne GmbH) at a density of 50.000 cells per well/6 μL in RPMI medium with 1% L-glut (serum-free medium). The plated cells were placed in a high humidity incubator (37 °C, 5% CO2 and 90% humidity) to avoid evaporation of the small amount of medium for 3 hours before the compounds were added. With the Echo520 liquid handler the cells were treated with a 3-fold 8-point serial dilution of the compounds, with a top final concentration of 330 μM and a final DMSO concentration of 1%. After compound transfer, cells were incubated for 1 hour in the high humidity incubator before the cells were treated with 3 μL of 9 nM EGF diluted in serum-free medium (final EGF concentration in the well 3 nM) for 15 minutes. The lysis buffer from the Phospho-ERK 1/2 (Thr202/Tyr204)- and the Total ERK1/2 LANCE Ultra TR-FRET Cellular Detection Kit (PerkinElmer Inc.) was prepared to a 4-fold concentration in water. Then 3 μL of the lysis buffer were added to each well and the plates were shaken at 300 rpm for 30 minutes at room temperature. During this incubation the antibody detection mix was prepared according to the manufacturer's protocol. In the final step 3 μL of antibody detection mix were added to each well. The plates were sealed with an aluminium sticky foil and incubated over night at room temperature for 20 hours. The detection was performed with the EnVision2104 Multilabel Reader.

[8] = system: AKT phosphorylation in SNU-1 cells (K-RAS4B^G12D); experiment: HTRF AKT phosphorylation assay in SNU-1 cells; assay type: cell-based; details: Homo sapiens, SNU1, read-out: SNU-1 pAKT inhibition IC50
Protocol: as §1, §2

[9] = system: ERK phosphorylation in A375 cells (K-RAS4B^wt); experiment: HTRF ERK phosphorylation assay in A375 cells; assay type: cell-based; details: Homo sapiens, A-375; A375 cells (K-RAS4B^wt, BRAF mutation); two determinations; read-out: A375 pERK inhibition IC50
Protocol: as §1, §2

[10] = system: AKT phosphorylation in A375 cells (K-RAS4B^wt); experiment: HTRF AKT phosphorylation assay in A375 cells; assay type: cell-based; details: Homo sapiens, A-375; A375 cells (K-RAS4B^wt, BRAF mutation); two determinations; read-out: A375 pAKT inhibition IC50
Protocol: as §1, §2

[11] = system: a series of cancer cell lines; design: method as in PMID 25909174; details: read-out: cytotoxic IC50 against a series of cancer cell lines; cited from earlier work
[12] = Solubility

Compound | IC50 [1] [µM] | selectivity factor, mutant versus K-RAS4B^wt [2] | IC50 [3] [µM] | IC50 [4] [µM] | Kd [5] [µM] | Kd [6] [µM] | IC50 [7] [µM] | IC50 [8] [µM] | IC50 [9] [µM] | IC50 [10] [µM] | IC50 [11] [µM] | solubility [12] [µM]
C=C(C)[C@@H]1CC[C@]2(C(=O)O)CC[C@]3(C)[C@H](CC[C@@H]4[C@@]5(C)CC[C@H](OC(=O)CC(C)(C)C(=O)O)C(C)(C)[C@@H]5CC[C@]43C)[C@@H]12 [Compound 28, bevirimat, reference compound] | 2.15 ± 0.17 | 3–4 | 0.59 ± 0.19 | 0.61 ± 0.14 | > 300 | > 1000 |  |  |  |  |  | 
C=C(C)[C@@H]1CC[C@]2(C(=O)O)CC[C@]3(C)[C@H](CC[C@@H]4[C@@]5(C)CC[C@H](OC(=O)c6ccccc6C(=O)O)C(C)(C)[C@@H]5CC[C@]43C)[C@@H]12 [Compound 19] | 15.3 ± 3.8 |  | 10.4 ± 4.7 | 16.6 ± 5.2 |  |  | > 300 | 19 | > 1000 | > 1000 | ≤ 10 | 191 (≈ 116 µg/mL)
